Source: a melting point compilation (Tetko et al.; mined from patent text by program, amines drawn as free bases though some values may be those of a salt)

melting point [°C]	Structure (SMILES)
121 to 122	O=[N+]([O-])c1ccccc1OCc1ccc2ccccc2n1
156 to 158	NC(=Nc1ccc(-n2cccc2)c(CNC(=O)CCCCC2CCSS2)c1)c1cccs1 (centres undefined)
234 to 236	O=C1CCC(N2C(=O)c3cccc(OCc4cc5ccccc5o4)c3C2=O)C(=O)N1 (centres undefined)
153 to 162	O=C(O)CCCc1cc2nc(Cl)ccc2n1S(=O)(=O)c1ccc2ncccc2c1
150 to 151	Cc1c(O)ccc2c1OCC(c1ccc(N)cc1)C2 (centres undefined)
128 to 130	CC1(C)C=CN(C(=O)Nc2ccccc2)C=C1
89 to 95	CCC(CC)(CC(=O)Nc1cccc(OCc2ccc3ccc(OCc4ccccc4)cc3n2)c1)C(=O)O
222 to 223	COc1ccc(C(=O)Nc2ccc(C(C)=O)cc2)cc1
91 to 93	COC(=O)Cn1c(=O)c2ccccc2n(CCCCN2CCC(OC(c3ccccc3)c3ccccc3)CC2)c1=O
233	CC(C)c1cccc(C(C)C)c1N1C(=O)c2cccc3c(C(N)=O)ccc(c23)C1=O
90	CC(C)(C)OC(=O)C(F)=CC1C(C(=O)O)C1(C)C (centres undefined)
136 to 138	CC(Cl)(Cl)C(NC(=O)c1cccc(Cl)c1)NC(=NC#N)Nc1ccccc1F (centres undefined)
68 to 70	CC1=C(C=O)COc2ccccc21
244 to 252	O=[N+]([O-])c1[nH]c(-c2c(Cl)cc(C(F)(F)F)cc2Cl)nc1C(F)(F)F
154	O=CC1(c2ccc(Br)cc2)CC=CO1 (centres undefined)
145 to 146	CCCc1nc(C(C)(C)O)c(C(=O)OCC)n1Cc1ccc(-c2ccccc2C(=O)NC(C)(C)C)cc1
134 to 136	CCCCCCc1cc2c(cc1/C=C/c1ccc(C(=O)O)cc1)C(C)(C)CCC2(C)C
> 360	CN1CCN(C(=O)c2ccc3c([N+](=O)[O-])c(O)c(O)cc3c2)CC1
233 to 235	Fc1ccc(Nc2ncnc3cnc(NC4CCC(N5CCOCC5)CC4)nc23)cc1Cl (centres undefined)
195 to 197	O=C(O)c1cc(CN2C(=O)C3(COc4cc5c(cc43)OCO5)c3ccccc32)oc1C(F)(F)F (centres undefined)
> 280	Cc1cc(C)c2ccc(S(=O)(=O)O)nc2n1
145	CN(NC(=O)OC(C)(C)C)C(=O)C(C)(C)ON=C(C(=O)O)c1csc(N)n1
182 to 184	Cc1nc(N2CCN(CC3CC3(F)F)C2=O)sc1C(=O)NCc1cncs1 (centres undefined)
187 to 189	CC12CCC(=O)N1CC(=O)N2 (centres undefined)

melting point [°C]	Structure (SMILES)
46.5 to 47.5	C#CCN1C[C@H](OC(C)=O)CC1=O
188 to 189	Cc1nnc(-c2ccc3occ(-c4cc(C(F)(F)F)ccc4Cl)c3c2)o1
> 190	O=C(O)[C@@H]1CN(CCn2c(=O)ccc3c(F)cc(F)cc32)CC[C@H]1NCc1cc2c(cn1)OCCO2
140 to 142	O=C1CC(C(=O)O)N(C(=O)CCS)N1 (centres undefined)
208	COc1ccc(S(=O)(=O)C2(C(=O)O)CCN(CCc3ccccc3)CC2)cc1
122 to 125	COc1cc(Br)c(OC)c(/C=C/C(=O)/C=C/c2cc(OC)cc(Br)c2OC)c1
121 to 124	C=COc1nc2c(c3ccccc13)c1cc(Cl)ccc1n2C
208 to 210	O=C1CCC(c2ccc(N=C(CCc3ccccc3)c3ccc(O)cc3O)cc2)=NN1
153 to 154	CCCCCCC#CC(O)C1=Nc2ccc(F)cc2C(=O)C1C (centres undefined)
136 to 138	COC(=O)C1Cc2ccccc2N1C(=O)C(C)(C)CSC(C)=O (centres undefined)
38 to 40	CCN(C(=O)COC(C)=O)C1=CC(C)(C)CC(C)=C1
158 to 159	COc1ccc(Br)cc1C(=O)C(Br)C(Br)c1ccc(Br)cc1 (centres undefined)
138 to 140	CC(=O)Nc1ccc(C2=NN(C(=O)CCl)C(C)Cc3cc4c(cc32)OCO4)cc1 (centres undefined)
109 to 112	CC(C)(C)C(=O)C(O)C(OS(=O)(=O)C(F)(F)F)C1OC(O)(C(=O)C(C)(C)C)C(O)(C(=O)C(C)(C)C)C1(O)C(=O)C(C)(C)C (centres undefined)
98 to 100	CCOC(=O)C1=Cc2cc(Cl)cc(CO)c2OC1C(F)(F)F (centres undefined)
80	COc1ccc2c(c1)C(=O)CC21CCCC1
129 to 132	O=C1CCCc2nc3ccccc3c(NCCc3ccccc3)c21
210	O=C(O)COc1ccc(-c2c(Br)ccc3sc4ccccc4c23)cc1
232 to 235	COc1ccccc1N1CCN(NC(=O)c2ccc(Cl)c(S(N)(=O)=O)c2)CC1
63 to 65	O=Cc1cccc(CSCCNC(=O)c2c(Cl)cccc2Cl)c1
225 to 227	Cc1cc(C(C)(C)C)cc2c1OCC(/C=C/C=C/C=C/C(=O)O)=C2
280 to 289	COc1ccc(/C=C/c2ccc3c(=O)[nH]ncc3c2)cc1
187 to 188	COc1ccccc1N1CCN(CCCNc2ncc3cc(-c4c(Cl)cccc4Cl)c(=O)n(C)c3n2)CC1
174	Cc1ncc(Cn2c(CC3CCN(CCc4c(C)nc5sccn5c4=O)CC3)nc3ccccc32)o1

melting point [°C]	Structure (SMILES)
85 to 86	CCOc1c(CO)cnc2c1c(C)nn2CC
205 to 207	O=C(O)Cc1cnc(Cc2ccc(NC(=O)c3ccc(C(F)(F)F)cc3)cc2)n2ccnc12
178 to 180	O=C(CCl)c1cc2c(s1)SCCc1cc(=O)n(-c3ccc(Cl)cc3)nc1-2
117 to 118	CC(COc1ccc(C(=O)O)c(O)c1)C[Si](C)(O[Si](C)(C)C)O[Si](C)(C)C (centres undefined)
190 to 191	CS(=O)(=O)Nc1ccc(C(=O)C2CCN(CCc3cn4ccccc4n3)CC2)cc1
123 to 125	CC12CCC(O)CC1=CCC1C2C(O)CC2(C)C1CCC21OCCO1 (centres undefined)
70 to 72	CCCCCCC(=N)NC(=S)Nc1ccc(OC)cc1
200	O=C(O)c1ccc(O)c(Cl)c1Cl
194 to 196	CC(CC(=O)Nc1c(Cl)ccc2nc(N3CCNCC3)ccc12)c1ccccc1 (centres undefined)
218 to 219	O=C(Nc1cc(Cl)cc(Cl)c1)c1ccccc1O
155 to 157	Cc1nc2c3c(c(CCl)cn2c1C)CCC(c1ccccc1)C3 (centres undefined)
100 to 103	COCc1nc(C=O)c[nH]1
216 to 217	CC(=O)Nc1cc(-c2sc(-c3ccc(S(C)(=O)=O)cc3)nc2-c2cccc(Cl)c2)ccn1
72 to 73	OC(c1ccccc1)c1ccc(-c2ccccc2)cc1 (centres undefined)
178 to 180	CCNc1ccc(NC(=O)c2ccc(C)c(Nc3nccc(-c4cccnc4)n3)c2)cc1C(F)(F)F
140 to 141	Cc1cc(Br)cnc1CCCCN=C(NC#N)NCc1ccccc1
156 to 161	CC(N=Cc1ccc(O)cc1)c1ccc(Br)cc1 (single isomer, unassigned; (-))
131 to 133	O=C(CCCN1CCN(c2ccc(CO)c(Cl)c2)CC1)c1cccs1
160 to 162	COc1ccc(NC(=S)Nc2ccc(NNC=O)c(OC)c2)cc1
254 to 255	Brc1ccc(-c2cc(-c3ccc(Br)cc3)cc(-c3ccc(Br)cc3)c2)cc1
147	c1ccc2c(c1)OCC(CN1CCC(CNc3nc4cnccc4s3)CC1)O2 (centres undefined)
120 to 122	CN(C(=O)c1nsc2ccc(-n3c(=O)cc(C(F)(F)F)n(C)c3=O)cc12)S(C)(=O)=O
105 to 107	CC(=O)Nc1ccc2c(c1)nc(/C=C/c1ccccc1)n2-c1ccccn1
257 to 258	Cc1c(S(=O)(=O)Nc2ccc(-c3nc(C(=O)O)cs3)cc2S(C)(=O)=O)sc2ccc(F)cc12

melting point [°C]	Structure (SMILES)
154 to 155	CCN1C(=O)OC(C)(C)c2cc(-c3cc(F)cc(C#N)c3)ccc21
101	NCCCN(CC1COc2ncccc2O1)c1ccc(Cl)nn1 (centres undefined)
175 to 176	COc1ccc(CCNC(=O)C(N)=O)cc1OC1CCCC1
112 to 115	COc1ccc(-n2nnnc2C(F)(F)F)cc1CN[C@H]1CCN(C(=O)CNC(C)=O)C[C@H]1c1ccccc1
135 to 140	O=c1oc(-c2ccc(SC(F)(F)F)cc2)nc2cccc(Cl)c12
140 to 144	CCN1c2cc(C)c(C)cc2N(C)C(=O)c2cccnc21
132 to 133	CC(C)c1nc2c(OCc3ccccc3)cc(Br)cc2n1C
184 to 185	NC(=O)C1CCc2c(sc3cc(F)ccc23)C1 (centres undefined)
178 to 180	Nc1ncc(-c2cccc(Nc3ccc(-c4ccco4)cc3[N+](=O)[O-])c2)cn1
146 to 148	CCOc1nc2ccccc2nc1NC(=O)N1CCN(c2cc(F)cc(F)c2)CC1
100 to 102	O=C(Oc1ccnc(OC(=O)c2ccccc2)c1)c1ccccc1
106	COCOc1ccc(OC)c(F)c1C(=O)c1ccc(C(=O)N[C@@H]2CCCN(C(=O)OC(C)(C)C)C[C@H]2NC(=O)c2ccncc2)cc1
251	CC(=O)Nc1scc(C(C)(C)C)c1C(N)=O
68 to 69	CCCCCCCCCCCCCCCCCCOC[C@H](CO)OC(=O)NC
150 to 152	NC(=O)C(F)(F)Cc1c[nH]c([N+](=O)[O-])n1
188 to 190	CNc1cccc(-c2ccnc3c(C(=O)c4cccs4)cnn23)c1
256 to 258	COc1cc(-c2cccs2)cc(OC)c1/C=C/C(=O)c1ccc(C(=O)O)cc1
98 to 100	COC(=O)Cc1ccc(O)c(NC(=O)c2c(C)c(OC)c(C)c(C)c2OC)c1
170 to 172	OCC1=C(c2cc3c(Cl)cccc3s2)N2CCN=C2S1
> 230	Cn1c(C(F)(F)F)cc(=O)n(-c2ccc3snc(CP(=O)(O)O)c3c2)c1=O
233 to 234	S=c1[nH]ccn1C1CCc2ccccc2C1 (centres undefined)
98 to 100	FC(F)(F)c1ccn(-c2cc(-c3ccc4c(c3)OCO4)nc3ccccc23)n1
70	CCOC(=O)c1nc2ccc(OC)cc2nc1SCC
242 to 244	CCN(CC)CCOc1ccc2cc3ccc(OCCN(CC)CC)c(CN4C(=O)c5ccccc5C4=O)c3nc2c1CN1C(=O)c2ccccc2C1=O

Structure (SMILES)	melting point [°C]
CN1C(=O)CN=C(c2cccc(C(F)(F)F)c2)c2ccccc21	121 to 122
CC(=O)OC1CC2(C)C(=O)CCC2C2CC=C3CC(O)CCC3(C)C12 (centres undefined)	155 to 156
ON=C1C2CCC1CN(Cc1ccccc1)C2	92 to 95
